Patent US20080045500A1, “Nerve Regeneration Stimulator” (priority 2004, published 2008)
Entries after “also recorded” stand apart in the source; their conditions may differ.

What was measured:
[1] = system: neural stem cells (BrdU positive cells) in hippocampal dentate gyrus; assay: Nerve regeneration in mouse hippocampal dentate gyrus: BrdU labelling, immunohistochemical count and GCL volume; assay type: in vivo
Method: C57BL/6 male SPF mice (8-week-old at the beginning of the experiments) purchased from Japan SLC, Inc. were used. Animals were subjected to experiments after acclimating in a breeding room under control at a temperature of 23±1° C. and illumination of 12 hours (7:00 to 19:00) for 5 days or longer. During breeding, animals had free access to solid food MF (Oriental Yeast Co., Ltd.) and water (tap water).
BrdU (Sigma) for labeling neural stem cells was used by dissolving in a phosphate buffer solution (PBS: Sigma) containing 0.007N HCl at a concentration of 5 mg/mL (Yoshimura et al., PNAS, 98, 5874-5879, 2001, Yoshimura et al., J. Clin. Invest., 112, 1202-1210, 2003). BrdU was intraperitoneally administered at a dose of 50 mg/kg (0.1 ml BrdU solution/10 g weight) for three times (every 4 hours).
Injectable distilled water was orally administered to animals of the vehicle control group.
The removed brain was sliced into coronal sections in a frozen state with a thickness of 40 μm using a sliding microtome (Leica, Model SM2000R, Nussloch). The sliced brain tissues were successively placed in 10 wells of a culture plate with a PBS solution containing sodium azide such that 10 sections were placed per well.
Immunostaining of the brain tissues were carried out by flotation (Yoshimura et al., PNAS, 98, 5874-5879, 2001, Yoshimura et al., J. Clin. Invest., 112, 1202-1210, 2003). Peroxidase method (ABC system, Vector Laboratories Inc.) was used for immunohistochemical detection of BrdU (Yoshimura et al., PNAS, 98, 5874-5879, 2001, Yoshimura et al., J. Clin. Invest., 112, 1202-1210, 2003). As a primary antibody to BrdU, rat anti-BrdU antibody (400-fold-diluted, Accurate Chemical & Scientific Corporation) was used. As a secondary antibody, rabbit IgG biotinylated antibody (200-fold-diluted, Vector Laboratories Inc.) was used
For quantitation, four hippocampal sections (intervals of sections being 400 μm, four sections between −1.4 mm to −2.6 mm from bregma) were used for each individual. All of the BrdU positive cells present in a subgranular zone (SGZ) and a granule cell layer (GCL) of the hippocampal dentate gyrus were determined. SGZ was defined as an area with a depth of 20 μm (a size corresponding to two cells) just below the GCL (on the side of hylus). […] The GCL area in each hippocampal section was determined as a cresyl violet positive GCL area using an image analyzing software (NIH, image ver. 1.60).
A volume of GCL (GCLV) was determined as a GCL volume in left hemisphere between −1.4 mm to −2.6 mm from bregma (Cavalieri technique). The number of BrdU positive cells in GCLV was calculated by multiplying the number of BrdU positive cells in the four hippocampal sections by 10. […]
All of the quantitative values are indicated in mean ±standard error (n=8 for each group).

[2] = system: neural stem cells (BrdU positive cells) in hippocampal dentate gyrus; assay: Nerve regeneration in rat hippocampal dentate gyrus: BrdU labelling, immunohistochemical count and GCL volume; assay type: in vivo; details: for GCL volume / Number of BrdU positive cells per hippocampus: SD rats, mean ± standard error, n=11; for Number of BrdU positive cells per hippocampus: vehicle 5490 ± 179, * p<0.05
Method: SD male SPF rats (6-week-old at the beginning of the experiments) purchased from Japan SLC, Inc. were bred under the same conditions as the mice in Example 2. Animals were subjected to experiments after acclimating for 5 days or longer following purchase.
BrdU (Sigma) for labeling neural stem cells was dissolved in PBS containing 0.014N HCl at a concentration of 10 mg/mL. BrdU was intraperitoneally administered at a dose of 50 mg/kg for three times (every 4 hours).
Injectable distilled water was orally administered at the same volume to animals in the vehicle control group.
The removed brain was sliced into sections as described in Example 2 for use in immunohistochemical studies.
Immunostaining of the brain tissues were carried out as described in Example 2.
For quantitation, four hippocampal sections (thickness of 40 μm, intervals of sections being 400 μm, four sections between −3.6 mm to −4.8 mm from bregma) were used for each individual. BrdU positive cells were counted in the same manner as Example 2. The GCL volume in each hippocampal section and the total number of BrdU positive cells in each hippocampal dentate gyrus were also determined as described in Example 2.
In Table 2, “*” indicates p<0.05, in comparison to the vehicle control group.

[3] = system: rat neural progenitor cells; assay: Intracellular calcium concentration of fetal rat neural progenitor cells (Fluo-3); assay type: cell-based
Method: Cerebrums were isolated from fetuses obtained from 14.5 days pregnant SD female rats (Japan SLC, Inc.). Cells were dispersed by pipetting the tissue in cold L-15 medium. These cells were cultured in a suspension containing 20 ng/ml human basic fibroblast growth factor (bFGF) in serum-free D-MEM/F-12 medium (supplemented with B-27, N2 (both from Invitrogen) and gentamicin beforehand). The rat neural progenitor cells are known to form a neurosphere in this medium. After 5 to 7 days, the neurosphere was collected and pipetted to isolate the rat neural progenitor cells, followed by passage culture using the medium described above.
The neural progenitor cells were isolated from the neurosphere that was collected a day before the experiment and suspended in the bFGF-free medium otherwise same as described above. After the number of cells was counted, 50,000 cells each were suspended in 100 μL of the medium described above and dispensed into a 96-flat bottom culture plate. Intracellular Ca^++ concentration was determined using a commercially available kit (Calcium Kit-Fluo-3, Dojindo laboratories) according to the attached instruction. To some of the wells, atropine (muscarine receptor antagonist) was added to 25 μmol/L and cultured at 37° C. for 30 minutes beforehand. […]

[4] = system: hippocampus of PTSD patients; details: administration to PTSD patients, reported by Bremner 2002; cited from earlier work
[5] = 0.5 mg/kg orally once a day for 28 days
[6] = 2 mg/kg orally once a day for 28 days

Structure (SMILES): COc1cc2c(cc1OC)C(=O)C(CC1CCN(Cc3ccccc3)CC1)C2.Cl (stereo not drawn) [Donepezil, 1-benzyl-4-[(5,6-dimethoxy-1-indanone)-2-yl]methylpiperidine hydrochloride]
- Number of BrdU positive cells per hippocampus ([1]; C57BL/6 mice, 1 mg/kg orally once a day for 14 days, mean ± standard error, n=8, vehicle 1091 ± 56, * p<0.05): 1528 ± 137*
- Effect on the volume of hippocampal nerve cell layer (GCL), in words ([1]; mice, 1 mg/kg orally, 14 days): no effect
- Number of BrdU positive cells compared to vehicle group (in words) ([1]; mice, 1 mg/kg orally, 14 days, statistically significant, hydrochloride, 1 mg/kg): higher; also recorded: increased
- GCL volume [2, 5]: 1.27 ± 0.04 mm^3
- Number of BrdU positive cells per hippocampus [2, 5]: 6880 ± 436*
- GCL volume [2, 6]: 1.35 ± 0.04 mm^3
- Number of BrdU positive cells per hippocampus [2, 6]: 6694 ± 357*
- Influence on the volume of rat hippocampal nerve cell layer (GCL), in words ([2]; rats, 0.5 and 2 mg/kg orally, 28 days): no influence
- Number of BrdU positive cells per hippocampus compared to vehicle group (in words) ([2]; rats, each donepezil group (0.5 and 2 mg/kg orally, 28 days), statistically significant): higher

Structure (SMILES): CN1[C@@H]2CC[C@H]1C[C@@H](OC(=O)C(CO)c1ccccc1)C2 (stereo partly drawn) [atropine]
- Antagonism of the acetylcholine/carbachol induced intracellular Ca++ increase ([3]; 25 μmol/L pretreatment for 30 minutes): completely antagonized; also recorded: completely inhibited

Structure (SMILES): C[N+](C)(C)CCOC(N)=O [carbachol]
- Change of intracellular Ca++ concentration on stimulation ([3]; 25 μmol/L agonist, Fluo-3 fluorescence): increases

Structure (SMILES): Fc1ccc([C@@H]2CCNC[C@H]2COc2ccc3c(c2)OCO3)cc1 [paroxetine]
- Volume of hippocampus of PTSD patients [4]: increase
